Patent publication US20230146395A1, “Substituted Pyrimidines and Uses Thereof” (Verge Analytics, Inc., priority 2020, published 2023)

Experiments:
[1] = system: HEK 293T transfected with plasmids containing TDP-43 Q331K mutation; experiment: HEK/TDP Survival assay (Cell-Titer-Glo, 48 hrs, maximal effect of rescue); type: cell-based; conditions: Homo sapiens, HEK 293T with TDP-43 Q331K, (n) in brackets
Method: HEK/TDP Survival assay: Immortalized human embryonic kidney 293T (HEK 293T) were transfected with plasmids containing TDP-43 Q331K mutation, resulting in an increase in cell death that is biologically relevant to ALS patients. Cell death is measured as reductions in the amount of ATP, an indicator of metabolically active cells, that is quantified by a luminescence Cell-Titer-Glo® (CTG) reagent. Compounds are evaluated in this model for changes in CTG compared to a no treatment group. Increased signal indicates improved survival (rescue) and decreased signal indicates decreased survival.
Cell rescue was measured in a 96-well format with eight different concentrations of the test compound over 48 hours (hrs) with 6 replicates. The Promega Cell-Titer-Glo® Luminescent Cell Viability Assay was used to quantify ATP, an indicator of metabolically active cells (see protocol: https://www.promega.com/-/media/files/resources/protocols/technical-manuals/101/celltiterglo-2-0-assay-protocol.pdf?la=en). The luminescence signal was detected using the PerkinElmer EnVision or Molecular Devices SpectraMax.
The effect of a compound at a given dose on cell viability was determined using a three step procedure. First, Hedge's g for the Cell Titer-Glo luminescence values using six untreated wells on every plate as a control was calculated. […] Finally, values from all compound-dose pairs were corrected for multiple hypothesis testing using the Empirical Bayes framework of Stephens, M. (False discovery rates: a new deal, Biostatistics, 18 [2], 2017, 275-294) yielding credible intervals for the measured effect and associated s values.
Briefly, this method computes a local false sign rate for each experiment. Analogous to the local false discovery rate of Efron, B. (Size, power and false discovery rates, Ann. Statist. 35 [4], 2007, 1351-1377) this value measures the confidence in the sign of each effect (rather than confidence in each effect being non-zero). The s values reported in the previous figures are the expected fraction of errors if estimating the sign of all effects with greater absolute local false sign rate, defined in analogy to the q value of Storey, JD (The positive false discovery rate: a Bayesian interpretation and the q-value, Ann. Statist. 31 [6] 2003, 2013-2035).
Drugs that yielded signed log s values greater than 3 were considered hits. This threshold was determined by a separate calibration experiment in which Cell Titer-Glo® was measured in blank plates consisting of untreated cells to assess the noise inherent in the assay. Data are presented as the maximal effect of rescue obtained from the dose-response curve.

[2] = target: T1, Full length human recombinant PIKFYVE (Homo sapiens, UniProt Q9Y2I7); experiment: Inhibition of PIKfyve (microfluidic electrophoresis kinase assay, PI3P/PS substrate); type: biochemical; conditions: 12 concentrations
T1 construct: Full length human recombinant PIKFYVE; purchased Carna Biosciences (Kobe, Japan); host or cells: baculovirus expression system
In short: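 Percent inhibition, from 12 concentrations, was derived from the product/(substrate+product) peak ratio separated by microfluidic electrophoresis, normalized to DMSO-only and enzyme-free controls. Reactions ran 3 h at room temperature: 2 nM N-terminal GST-PIKFYVE, 1 μM fluorescent PI3P in PS vesicles, […], HEPES pH 7.5, MgCl2/MnCl2.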

T1 sequence (Q9Y2I7 whole entry): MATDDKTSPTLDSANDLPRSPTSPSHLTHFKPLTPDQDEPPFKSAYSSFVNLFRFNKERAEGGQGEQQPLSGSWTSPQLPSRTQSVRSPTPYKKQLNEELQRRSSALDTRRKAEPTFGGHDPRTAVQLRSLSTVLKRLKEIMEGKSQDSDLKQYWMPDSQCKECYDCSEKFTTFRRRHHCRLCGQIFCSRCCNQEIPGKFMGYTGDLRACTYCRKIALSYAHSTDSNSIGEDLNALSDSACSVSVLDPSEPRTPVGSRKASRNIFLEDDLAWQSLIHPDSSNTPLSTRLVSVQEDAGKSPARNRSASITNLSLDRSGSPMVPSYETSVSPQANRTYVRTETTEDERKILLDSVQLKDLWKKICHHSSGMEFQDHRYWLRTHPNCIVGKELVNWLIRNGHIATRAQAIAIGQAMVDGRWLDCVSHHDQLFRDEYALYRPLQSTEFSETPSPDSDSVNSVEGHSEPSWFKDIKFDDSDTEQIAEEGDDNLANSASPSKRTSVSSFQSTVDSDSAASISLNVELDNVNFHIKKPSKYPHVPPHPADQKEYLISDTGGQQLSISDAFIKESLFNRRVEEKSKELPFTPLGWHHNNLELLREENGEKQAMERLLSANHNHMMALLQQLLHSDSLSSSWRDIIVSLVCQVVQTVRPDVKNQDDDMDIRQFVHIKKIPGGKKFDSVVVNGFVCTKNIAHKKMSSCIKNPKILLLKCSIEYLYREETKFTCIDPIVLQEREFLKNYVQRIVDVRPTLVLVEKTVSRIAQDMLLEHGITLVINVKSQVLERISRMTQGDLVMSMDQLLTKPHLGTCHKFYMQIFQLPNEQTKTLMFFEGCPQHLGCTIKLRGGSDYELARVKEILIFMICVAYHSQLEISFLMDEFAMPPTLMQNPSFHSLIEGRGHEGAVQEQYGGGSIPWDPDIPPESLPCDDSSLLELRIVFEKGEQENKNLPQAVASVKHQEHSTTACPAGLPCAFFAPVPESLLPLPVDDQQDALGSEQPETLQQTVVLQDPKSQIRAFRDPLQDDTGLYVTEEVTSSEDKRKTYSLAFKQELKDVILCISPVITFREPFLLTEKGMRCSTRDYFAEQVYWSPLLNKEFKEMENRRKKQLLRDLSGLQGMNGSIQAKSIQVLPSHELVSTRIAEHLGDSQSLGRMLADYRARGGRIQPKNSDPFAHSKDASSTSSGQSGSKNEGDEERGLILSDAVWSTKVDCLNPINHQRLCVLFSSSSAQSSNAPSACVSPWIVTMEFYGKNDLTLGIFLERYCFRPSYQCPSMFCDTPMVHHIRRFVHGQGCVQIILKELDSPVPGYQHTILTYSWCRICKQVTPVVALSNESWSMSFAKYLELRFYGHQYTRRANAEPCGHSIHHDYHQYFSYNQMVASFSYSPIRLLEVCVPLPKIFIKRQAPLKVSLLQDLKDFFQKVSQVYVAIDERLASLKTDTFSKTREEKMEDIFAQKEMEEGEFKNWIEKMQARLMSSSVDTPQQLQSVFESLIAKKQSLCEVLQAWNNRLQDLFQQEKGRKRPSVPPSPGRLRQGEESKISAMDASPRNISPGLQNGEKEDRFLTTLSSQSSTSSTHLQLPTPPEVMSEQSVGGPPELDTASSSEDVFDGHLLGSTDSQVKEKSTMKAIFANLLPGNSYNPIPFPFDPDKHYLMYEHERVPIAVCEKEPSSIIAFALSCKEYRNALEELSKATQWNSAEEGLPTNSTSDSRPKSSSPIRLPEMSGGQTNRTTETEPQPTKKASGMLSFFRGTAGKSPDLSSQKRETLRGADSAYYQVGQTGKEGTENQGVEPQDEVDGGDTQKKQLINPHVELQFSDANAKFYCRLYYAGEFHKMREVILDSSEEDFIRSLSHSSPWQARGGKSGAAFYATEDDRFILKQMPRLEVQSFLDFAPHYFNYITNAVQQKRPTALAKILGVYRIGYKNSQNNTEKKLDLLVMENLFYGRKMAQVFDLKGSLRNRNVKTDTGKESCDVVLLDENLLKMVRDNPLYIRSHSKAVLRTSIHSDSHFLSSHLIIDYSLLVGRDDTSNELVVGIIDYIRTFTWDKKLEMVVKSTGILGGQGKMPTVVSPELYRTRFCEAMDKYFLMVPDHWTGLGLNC

IC50 [2] [nM]	Structure (SMILES)	EC50 [1] [nM]
> 10000	Cc1cccc(-c2ccn(-c3nc(N4CCOCC4)c4oc(-c5ccccn5)c(C(F)(F)F)c4n3)n2)c1 [Compound 112, 4-morpholino-6-(pyridin-2-yl)-2-(3-(m-tolyl)-1H-pyrazol-1-yl)-7-(trifluoromethyl) furo[3,2-d]pyrimidine]	153
0.2	Cc1cccc(-c2cnn(-c3nc(N4CCOCC4)c4oc(C(=O)N[C@@H](C)C5CC5)cc4n3)c2)c1 [Compound 113, (S)-N-(1-cyclopropylethyl)-4-morpholino-2-(4-(m-tolyl)-1H-pyrazol-1-yl)furo[3,2-d]pyrimidine-6-carboxamide]	16
3.3	Cc1cccc(-c2cnn(-c3nc(N4CCOCC4)c4oc(C(=O)NC5CCCN(C)C5)cc4n3)c2)c1 (stereo not drawn) [Compound 123, N-(1-methylpiperidin-3-yl)-4-morpholino-2-(4-(m-tolyl)-1H-pyrazol-1-yl)furo[3,2-d]pyrimidine-6-carboxamide]	28.5
16.2	Cc1cccc(-c2cnn(-c3nc(N4CCOCC4)c4oc(C(=O)NCCCS(=O)(=O)N(C)C)cc4n3)c2)c1 [Compound 120, N-(3-(N,N-dimethylsulfamoyl)propyl)-4-morpholino-2-(4-(m-tolyl)-1H-pyrazol-1-yl)furo[3,2-d]pyrimidine-6-carboxamide]	121
8	c1ccc(-c2cc(Nc3nc(N4CCOCC4)c4oc(-c5ccncc5)cc4n3)no2)cc1 [Compound 43, 4-morpholino-N-(5-phenylisoxazol-3-yl)-6-(pyridin-4-yl)furo[3,2-d]pyrimidin-2-amine]	47.5
11.8	Cc1cccc(-c2cnn(-c3nc(N4CCOCC4)c4oc(C(=O)NC5CCCN(C)CC5)cc4n3)c2)c1 (stereo not drawn) [Compound 129, N-(1-methylazepan-4-yl)-4-morpholino-2-(4-(m-tolyl)-1H-pyrazol-1-yl)furo[3,2-d]pyrimidine-6-carboxamide]	9
18	[2H]C1([2H])OC([2H])([2H])C([2H])([2H])N(c2nc(-n3cc(-c4cccc(C)c4)cn3)nc3cc(C(=O)NCC)oc23)C1([2H])[2H] [Compound 131, N-ethyl-4-morpholino(dg)-2-(4-(m-tolyl)-1H-pyrazol-1-yl)furo[3,2-d]pyrimidine-6-carboxamide]	17
0.3	Cc1cccc(-c2cnn(-c3nc(N4CCOCC4)c4oc(-c5cc(C)n(CCN(C)C)n5)cc4n3)c2)c1 [Compound 146, N,N-dimethyl-2-(5-methyl-3-(4-morpholino-2-(4-(m-tolyl)-1H-pyrazol-1-yl)furo[3,2-d]pyrimidin-6-yl)-1H-pyrazol-1-yl)ethanamine]	11
11.7	Cc1cccc(-c2ccn(-c3nc(N4CCOCC4)c4oc(C(=O)NCCCN(C)C)cc4n3)n2)c1 [Compound 109, N-(3-(dimethylamino)propyl)-4-morpholino-2-(3-(m-tolyl)-1H-pyrazol-1-yl)furo[3,2-d]pyrimidine-6-carboxamide]	46.5
32.3	Cc1cccc(-c2ccn(-c3nc(N4CCOCC4)c4oc(C(=O)NCC5COC5)cc4n3)n2)c1 [Compound 105, 4-morpholino-N-(oxetan-3-ylmethyl)-2-(3-(m-tolyl)-1H-pyrazol-1-yl)furo[3,2-d]pyrimidine-6-carboxamide]	100
47.3	COCCNC(=O)c1cc2nc(-n3ccc(-c4cccc(C)c4)n3)nc(N3CCOCC3)c2o1 [Compound 93, N-(2-methoxyethyl)-4-morpholino-2-(3-(m-tolyl)-1H-pyrazol-1-yl)furo[3,2-d]pyrimidine-6-carboxamide]	60
0.9	Cc1cccc(-c2cnn(-c3nc(N4CCOCC4)c4oc(C(=O)NC5CCOCC5)cc4n3)c2)c1 [Compound 125, 4-morpholino-N-(tetrahydro-2H-pyran-4-yl)-2-(4-(m-tolyl)-1H-pyrazol-1-yl)furo[3,2-d]pyrimidine-6-carboxamide]	26
